Test results: patent publication US20130202649A1, “ACTIVATION OF INNATE IMMUNITY FOR NUCLEAR REPROGRAMMING OF SOMATIC CELLS” (The Board of Trustees of the Leland Stanford Junior …, priority 2012, published 2013)

What was measured:
NF-κB = NF-κB luciferase assay; assay type: cell-based, human; details: BJ fibroblasts; poly IC 300 ng/ml
Experimental: NF-κB Luciferase assay BJ fibroblasts (3×105) were seeded in a 6-well plate and subjected to either pMX-GFP infection, CPP-SOX2 treatment with or without poly IC (300 ng/ml). Cells were transfected with pNF-κB-Luc and pFC-MEKK as a positive control plasmid using Lipofectamine 2000. Twentyfour hours post-transfection, cells were collected for measuring the luciferase activity by the Bright-Glo™ Luciferase Assay System using a luminometer.

human BJ fibroblasts = test: Temporal target and pluripotency gene expression (qPCR) after retroviral vector, CPP or TLR3 agonist treatment; assay type: cell-based
From the text: In an effort to understand and overcome this failure, we examined the temporal sequence of target gene expression in response to a retroviral construct (pMX-Sox2) versus the corresponding CPP(CPP-SOX2). We focused on validated downstream targets such as Jarid2, Zic2, and bMyb for Sox2-activated genes, as well as, downstream genes known to function in nuclear reprogramming, i.e. Nanog, Sox2 and Oct4. Human fibroblasts were synchronized by serum starvation and then subjected to either a single infection with pMX-Sox2 or daily treatments of CPP-SOX2, and gene expression was assayed over 6 days.
Viral preparation and infection HEK293FT cells were plated at 6×10^6 cells per T225 flask and incubated overnight. Cells were transfected with 10 μg of VSV-G (envelope protein), 15 μg of pUMVC (packaging plasmid) and 10 μg of gene of interest (Sox2 or Oct4) with Lipofectamine. 48 hours after transfection, the supernatant of transfectant was collected and filtered through a 0.45 μm filter. Following spinning at 17,100 rpm for 2 hr 20 min, the viral pellet was resuspended to make 100× stock solutions. Human fibroblasts were seeded at 5×10^4 cells per well of a 6-well dish a day before transduction. The medium was replaced with virus-containing supernatant supplemented with 8 μg/ml polybrene, and incubated for 24 hr.
Treatments At 60-70% confluency, BJ fibroblast cells were serum-starved using 1% serum to induce G1 cell cycle arrest. The synchronized BJ fibroblasts were then subjected to either a single infection with retroviral constructs or daily treatments with 200 nM CPPs (CPP-SOX2 or CPP-OCT4). Poly I:C (300 ng/ml) was added to the cells simultaneously with the CPPs. For experiments involving peptide inhibitors, cells were pretreated for 6 hrs at 40 uM with either MyD88 inhibitory peptide (Pepinh-MyD) or TRIF inhibitory peptide (Pepinh-TRIF) followed by CPP treatments.
Gene Expression and Microarray Analyses RNA was isolated with the RNeasy kit. First-strand cDNA was primed with oligo(dT) primers and qPCR was performed with primer sets from Applied Biosystems. […]

human fibroblasts = test: CPP-induced generation of human iPSCs; assay type: cell-based
From the text: It is known that persistent expression (about 2 weeks) of the reprogramming factors is required using viral vectors to generate mouse iPSCs. […] We hypothesized that activation of the TLR3 pathway might facilitate epigenetic alterations required for full transcriptional effect of the CPPs. We also attempted to mimic the biphasic effect of the reprogramming factors introduced as viral vectors by reducing the dose of CPPs after 6 days. Accordingly, we exposed human fibroblasts to the four CPP-transcription factors (Oct4-R11, Sox2-R11, Klf4-R11 and cMyc-R11) (at a dose of 200 nM for days 1-6, and a dose of 100 nM for days 7-21), in the presence or absence of poly I:C (300 ng/ml) for days 1-6 (FIG. 7A). The cultures were transferred to feeder cells (inactivated MEFs) at day 26. In the presence of poly I:C, Oct4 expression was accelerated (FIG. 7B). […] Small colonies were observed by day 21 and ES like colonies appeared by day 30, many of which expressed TRA-1-81 as indicated by live cell staining. By contrast, in human fibroblasts not exposed to poly I:C, colonies were not observed until day 30 days. By day 40, colony number was increased by more than 4-fold in cells exposed to poly I:C (FIG. 7C). Application of our insights regarding the role of TLR3 signaling in nuclear reprogramming permitted us to successfully reprogram human fibroblasts to pluripotency using CPPs.
Protein-iPSCs: Recombinant Oct4, Sox2, Klf4, and cMyc human proteins (CPPs) contained an eleven-arginine membrane penetration domain at the C terminus were obtained from Stemgent. Human fibroblasts were treated with CPPs encoding the reprogramming factors (CPP-Oct4, CPP-Sox2, CPP-Klf4 and CPP-Myc) daily for 6 days with 200 nM CPPs, followed by daily treatments of 100 nM CPPs from day 7 to day 20. Poly I:C (300 ng/ml) or vehicle was added to the cell simultaneously only up to day 6. The cells were passed onto MEF feeders at day 30. After 20 days of CPP treatments, wells were closely scanned for colonies.
Immunostaining of Live Cells For the detection of SSEA-1 or TRA-1-81 in live cells, the primary Ab (anti-mouse SSEA-1, antihuman TRA-1-81, Stemgent) was diluted to a final concentration of 2.5 to 5 μg/ml in fresh cell culture medium and incubated with cells for 30 minutes at 37° C. and 5% CO2. After gentle washing the cells were examined under a fluorescent microscope.

NF-κB activation (luciferase reporter) (NF-κB): induced NF-κB activation
Substance: Polyinosinicpolycytidylic acid [Poly I:C]
target and pluripotency gene expression (human BJ fibroblasts; agent alone, CPP 200 nM daily or single infection on Day 0, assayed over 6 days): unaffected
temporal expression of the downstream genes induced by CPP-OCT4 (human BJ fibroblasts; combined with CPP-OCT4 200 nM daily): accelerated
expression of the downstream genes induced by CPP-SOX2 (human BJ fibroblasts; combined with CPP-SOX2 200 nM daily, poly I:C 300 ng/ml): accelerated
increase in colony number (human fibroblasts; day 40, cells exposed to poly I:C versus not): more than 4 fold
Oct4 expression (human fibroblasts; four CPPs 200 nM days 1-6, 100 nM days 7-21, poly I:C 300 ng/ml days 1-6): accelerated
iPSC generation (human fibroblasts; four CPPs plus poly I:C 300 ng/ml days 1-6): accelerated iPSC generation
small colonies observed by (human fibroblasts; four CPPs plus poly I:C 300 ng/ml days 1-6, without poly I:C not until day 30): ≤ 21 days
